Each block holds one compound with its values, some of them ahead of it.
Assays:
Aromatase [1] = target: T1, Aromatase (Homo sapiens, UniProt P11511); type: microsomes, Placenta, Microsome
T1 sequence (P11511 whole entry): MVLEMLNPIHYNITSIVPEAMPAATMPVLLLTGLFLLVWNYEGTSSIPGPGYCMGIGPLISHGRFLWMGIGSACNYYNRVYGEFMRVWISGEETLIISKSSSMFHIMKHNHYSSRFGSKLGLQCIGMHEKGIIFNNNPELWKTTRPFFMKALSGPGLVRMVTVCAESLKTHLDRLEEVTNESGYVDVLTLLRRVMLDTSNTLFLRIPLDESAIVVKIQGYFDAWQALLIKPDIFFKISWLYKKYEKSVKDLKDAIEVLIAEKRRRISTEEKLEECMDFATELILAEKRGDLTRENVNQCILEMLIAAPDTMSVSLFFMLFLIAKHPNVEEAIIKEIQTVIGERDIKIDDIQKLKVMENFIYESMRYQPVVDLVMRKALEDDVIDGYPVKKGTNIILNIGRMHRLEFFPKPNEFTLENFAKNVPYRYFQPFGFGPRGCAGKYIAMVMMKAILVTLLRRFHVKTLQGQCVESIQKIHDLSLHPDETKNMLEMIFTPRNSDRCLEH

Steryl-sulfatase [2] = target: T2, Steryl-sulfatase (Homo sapiens, UniProt P08842)
T2 sequence (P08842 whole entry): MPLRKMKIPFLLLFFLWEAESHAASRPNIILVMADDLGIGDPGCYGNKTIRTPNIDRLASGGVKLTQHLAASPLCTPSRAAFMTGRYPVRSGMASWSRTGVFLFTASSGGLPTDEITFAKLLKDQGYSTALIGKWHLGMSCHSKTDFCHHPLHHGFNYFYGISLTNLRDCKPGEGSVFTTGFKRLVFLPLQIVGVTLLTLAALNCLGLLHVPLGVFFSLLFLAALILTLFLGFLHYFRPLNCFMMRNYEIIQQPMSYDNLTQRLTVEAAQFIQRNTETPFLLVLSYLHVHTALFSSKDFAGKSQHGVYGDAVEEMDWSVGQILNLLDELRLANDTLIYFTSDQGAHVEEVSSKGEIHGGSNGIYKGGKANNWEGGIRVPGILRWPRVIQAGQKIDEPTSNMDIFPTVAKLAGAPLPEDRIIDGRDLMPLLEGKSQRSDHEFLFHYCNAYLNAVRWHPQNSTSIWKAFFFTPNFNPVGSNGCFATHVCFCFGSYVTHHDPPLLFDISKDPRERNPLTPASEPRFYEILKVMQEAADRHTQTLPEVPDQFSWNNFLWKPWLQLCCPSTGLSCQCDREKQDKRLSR

Steryl-sulfatase [3] = target: T2, Steryl-sulfatase; remark: listed apart in the source
Aromatase [4] = target: T1, Aromatase; type: microsomes, Placenta, Microsome; remark: listed apart in the source
Aromatase [5] = target: T1, Aromatase
Steryl-sulfatase [6] = target: T2, Steryl-sulfatase; type: microsomes, Placenta, Microsome
Steryl-sulfatase [7] = target: T2, Steryl-sulfatase; type: cell-based, HEK293
Steryl-sulfatase [8] = target: T2, Steryl-sulfatase; type: cell-based, HEK293; remark: listed apart in the source
Estrogen receptor [9] = target: T3, Estrogen receptor (Homo sapiens, UniProt P03372)
T3 sequence (P03372 whole entry): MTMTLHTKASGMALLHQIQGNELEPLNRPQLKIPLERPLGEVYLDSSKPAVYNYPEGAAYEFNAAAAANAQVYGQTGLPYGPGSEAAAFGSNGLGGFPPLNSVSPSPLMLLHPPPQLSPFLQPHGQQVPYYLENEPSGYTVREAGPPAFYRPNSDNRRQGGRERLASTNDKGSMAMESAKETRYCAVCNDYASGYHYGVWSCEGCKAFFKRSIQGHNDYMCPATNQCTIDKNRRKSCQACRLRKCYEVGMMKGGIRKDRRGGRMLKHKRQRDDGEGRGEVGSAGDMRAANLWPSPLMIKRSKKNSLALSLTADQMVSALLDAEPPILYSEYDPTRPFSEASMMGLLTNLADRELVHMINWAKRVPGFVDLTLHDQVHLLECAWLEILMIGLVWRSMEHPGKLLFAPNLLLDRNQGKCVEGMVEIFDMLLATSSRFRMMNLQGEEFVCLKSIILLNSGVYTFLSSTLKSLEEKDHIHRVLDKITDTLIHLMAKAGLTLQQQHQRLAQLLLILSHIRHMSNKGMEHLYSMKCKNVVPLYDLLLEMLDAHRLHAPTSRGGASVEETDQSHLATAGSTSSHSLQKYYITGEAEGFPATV

Steryl-sulfatase [10] = target: T2, Steryl-sulfatase; remark: listed apart in the source
Estrogen receptor [11] = target: T3, Estrogen receptor; type: cell-based, MCF7
MCF7 = test: cells; type: functional, cell-based; conditions: Homo sapiens, MCF7, 72 h
Estrogen receptor [12] = target: T3, Estrogen receptor; remark: listed apart in the source
Estrogen receptor beta = Estrogen receptor beta (Homo sapiens, UniProt Q92731); type: cell-based, MCF7
Estrogen receptor [13] = target: T3, Estrogen receptor; remark: listed apart in the source
[14] = target: Receptor tyrosine-protein kinase erbB-2 (Homo sapiens, UniProt P04626)
[15] = target: RAF proto-oncogene serine/threonine-protein kinase (Homo sapiens, UniProt P04049); type: cell-based, MCF7
Chain of RAF proto-oncogene serine/threonine-protein kinase (P04049 whole entry): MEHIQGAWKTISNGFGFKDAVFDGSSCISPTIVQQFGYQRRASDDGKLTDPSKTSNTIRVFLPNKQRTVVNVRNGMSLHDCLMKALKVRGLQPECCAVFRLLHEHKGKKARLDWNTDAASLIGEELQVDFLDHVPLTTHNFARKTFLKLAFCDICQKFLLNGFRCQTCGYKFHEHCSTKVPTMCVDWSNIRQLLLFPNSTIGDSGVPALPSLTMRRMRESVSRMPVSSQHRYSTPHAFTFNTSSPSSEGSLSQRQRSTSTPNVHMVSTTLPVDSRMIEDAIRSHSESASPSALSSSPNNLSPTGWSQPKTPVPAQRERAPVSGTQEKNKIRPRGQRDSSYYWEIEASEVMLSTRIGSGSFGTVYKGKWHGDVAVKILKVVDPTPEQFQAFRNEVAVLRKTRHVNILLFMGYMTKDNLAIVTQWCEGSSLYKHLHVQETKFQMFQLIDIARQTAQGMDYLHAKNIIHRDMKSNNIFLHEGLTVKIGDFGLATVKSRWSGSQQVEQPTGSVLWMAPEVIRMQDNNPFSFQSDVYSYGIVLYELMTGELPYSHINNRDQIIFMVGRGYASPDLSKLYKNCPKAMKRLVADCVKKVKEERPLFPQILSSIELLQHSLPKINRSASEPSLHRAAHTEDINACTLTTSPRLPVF

Chain of Receptor tyrosine-protein kinase erbB-2 (P04626 whole entry): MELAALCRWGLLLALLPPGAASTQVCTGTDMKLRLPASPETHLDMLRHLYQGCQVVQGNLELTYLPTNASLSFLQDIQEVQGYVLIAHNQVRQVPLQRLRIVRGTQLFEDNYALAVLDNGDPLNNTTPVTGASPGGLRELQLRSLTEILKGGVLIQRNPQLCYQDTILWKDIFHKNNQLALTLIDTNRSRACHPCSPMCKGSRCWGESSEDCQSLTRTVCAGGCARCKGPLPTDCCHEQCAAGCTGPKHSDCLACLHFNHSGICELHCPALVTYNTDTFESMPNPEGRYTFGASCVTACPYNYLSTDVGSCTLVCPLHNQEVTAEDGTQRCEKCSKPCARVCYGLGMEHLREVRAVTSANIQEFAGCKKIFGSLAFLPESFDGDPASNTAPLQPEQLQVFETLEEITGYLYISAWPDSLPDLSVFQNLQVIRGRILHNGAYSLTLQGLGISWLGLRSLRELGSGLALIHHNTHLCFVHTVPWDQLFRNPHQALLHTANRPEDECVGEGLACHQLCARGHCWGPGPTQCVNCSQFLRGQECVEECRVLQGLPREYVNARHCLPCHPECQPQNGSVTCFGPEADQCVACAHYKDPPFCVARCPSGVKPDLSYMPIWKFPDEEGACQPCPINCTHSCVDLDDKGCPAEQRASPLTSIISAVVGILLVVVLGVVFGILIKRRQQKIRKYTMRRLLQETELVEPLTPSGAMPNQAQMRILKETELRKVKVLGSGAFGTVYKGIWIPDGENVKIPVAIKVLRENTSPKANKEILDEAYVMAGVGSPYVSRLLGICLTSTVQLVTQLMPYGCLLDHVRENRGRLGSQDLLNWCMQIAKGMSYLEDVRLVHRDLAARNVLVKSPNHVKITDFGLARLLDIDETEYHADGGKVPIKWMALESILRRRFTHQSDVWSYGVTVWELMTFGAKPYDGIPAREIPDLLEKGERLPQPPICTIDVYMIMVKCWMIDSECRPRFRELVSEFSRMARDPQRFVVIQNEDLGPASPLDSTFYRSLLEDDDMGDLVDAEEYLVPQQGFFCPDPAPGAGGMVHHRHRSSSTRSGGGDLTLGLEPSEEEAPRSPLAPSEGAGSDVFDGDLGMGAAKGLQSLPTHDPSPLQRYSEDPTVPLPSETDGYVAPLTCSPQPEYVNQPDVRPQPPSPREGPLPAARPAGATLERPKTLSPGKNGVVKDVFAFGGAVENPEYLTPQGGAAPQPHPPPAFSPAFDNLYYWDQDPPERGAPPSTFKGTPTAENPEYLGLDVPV
Chain of Estrogen receptor beta (Q92731 whole entry): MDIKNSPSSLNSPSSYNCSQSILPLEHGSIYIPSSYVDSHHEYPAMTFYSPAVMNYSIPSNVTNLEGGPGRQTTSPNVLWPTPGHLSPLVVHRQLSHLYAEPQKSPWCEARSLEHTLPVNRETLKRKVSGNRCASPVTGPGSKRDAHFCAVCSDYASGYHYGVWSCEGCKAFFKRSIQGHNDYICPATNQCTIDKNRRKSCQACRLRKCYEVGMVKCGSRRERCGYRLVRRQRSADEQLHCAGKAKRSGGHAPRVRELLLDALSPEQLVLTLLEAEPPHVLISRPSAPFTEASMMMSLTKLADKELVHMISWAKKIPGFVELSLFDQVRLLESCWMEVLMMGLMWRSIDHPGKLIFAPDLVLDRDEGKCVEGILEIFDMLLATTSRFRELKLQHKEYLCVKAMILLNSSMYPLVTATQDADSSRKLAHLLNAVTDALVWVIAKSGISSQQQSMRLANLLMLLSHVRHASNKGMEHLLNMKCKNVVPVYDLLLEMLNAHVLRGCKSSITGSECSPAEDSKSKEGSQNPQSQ

IC50 (Aromatase [1]): 0.4 nM
Compound: N#Cc1ccc(N(Cc2ccc(Br)cc2)n2cnnc2)cc1

IC50 (Steryl-sulfatase [7]): 46 nM | IC50 (Steryl-sulfatase [8]): 14 nM
Compound: CC(C)(C)c1ccc(C[C@]2(O)CC[C@H]3[C@@H]4CC=C5C[C@@H](OS(N)(=O)=O)CC[C@]5(C)[C@H]4CC[C@@]32C)cc1

IC50 (Estrogen receptor [9]): 3.5 nM
Compound: CC(C)(C#N)c1cc(CSc2ccc(OS(N)(=O)=O)cc2)cc(Cn2cncn2)c1

IC50 (Estrogen receptor [11]): 5490 nM
Compound: C/C=C1/[C@H](O)C[C@H]2[C@@H]3CCc4cc(OC)ccc4[C@H]3CC[C@]12C

IC50 (Steryl-sulfatase [3]): 55.8 nM
Compound: CCCCCCCCCCCCC(=O)NCCc1ccc(OS(N)(=O)=O)cc1

IC50 (Aromatase [5]): 41 nM
Compound: Oc1ccc2c(c1)O[C@@H](c1ccccc1)C[C@@H]2n1ccnc1

IC50 (Estrogen receptor [12]): 30 nM
Compound: CC/C(=C(\c1ccc(O)cc1)c1ccc(OCCNCCCCCCNC(=O)CCC2=[N+]3C(=CC4=CC=C(C)C4[B-]3(F)F)C=C2)cc1)c1ccccc1 (centres undefined)

IC50 (Steryl-sulfatase [3]): 37800 nM
Compound: O=c1oc2cc(OP(=O)(O)O)ccc2c2c1CCCC2

The next lines start with the compound.

Compound: CC(C)(C)c1cc(=O)c2cc(OS(N)(=O)=O)ccc2o1
IC50 (Steryl-sulfatase [2]): 0.047 nM

Compound: CCCCCCCCCc1cc(=O)c2cc(OS(N)(=O)=O)ccc2o1
IC50 (Steryl-sulfatase [2]): 0.089 nM

Compound: C[C@]12CC[C@@H]3c4ccc(C(F)(F)S(N)(=O)=O)cc4CC[C@H]3[C@@H]1CCC2=O
Ki (Steryl-sulfatase [3]): 28000 to 82000 nM

Compound: COc1ccc2c(c1)C(N)=C(Cc1ccncc1)C2=O
IC50 (Aromatase [4]): 100 nM

Compound: CC/C(=C(\c1ccc(OCCN(C)C)cc1)c1ccc(OS(N)(=O)=O)cc1)c1ccccc1
Ki (Steryl-sulfatase [3]): > 500000 nM

Compound: CC/C(=C(/c1ccc(OCCN(C)C)cc1)c1ccc(OS(N)(=O)=O)cc1)c1ccccc1
Ki (Steryl-sulfatase [3]): 35900 nM

Compound: N#Cc1ccc2sc(C34CC5CC(CC(C5)C3)C4)cc(=O)c2c1
IC50 (Steryl-sulfatase [3]): 180 nM

Compound: C[C@]12CCC(=O)C=C1C=C(CCc1ccccc1)[C@@H]1[C@@H]2CC[C@]2(C)C(=O)CC[C@@H]12
Ki (Aromatase [5]): 174 nM

Compound: CCCCCCCCCCCCCC(=O)NCc1ccc(OS(N)(=O)=O)cc1
IC50 (Steryl-sulfatase [6]): 72 nM

Compound: COc1c2c(c(O)c3c1C(=O)c1cc(C)c(O)cc1C3=O)-c1c(cc(/C=N/NC(=S)NC3CCCCC3)c(C(=O)O)c1O)CC2
IC50 (Steryl-sulfatase [10]): 460 nM | Ki (Steryl-sulfatase [10]): 350 nM

Compound: N#Cc1ccc(N(Cc2ccc(OS(N)(=O)=O)cc2F)n2cnnc2)cc1
IC50 (Steryl-sulfatase [3]): 2.5 nM

Compound: C[C@]12CC[C@@H]3c4ccc(NC(=O)C(F)(F)F)cc4CC[C@H]3[C@@H]1CCC2=O
IC50 (Steryl-sulfatase [3]): 8700 nM

Compound: O=[N+]([O-])c1ccc(N(Cc2ccc(Br)cc2)n2cnnc2)cc1
IC50 (Aromatase [1]): 0.12 nM

Compound: CC(O)[C@@]12C[C@@H]1C[C@H]1[C@@H]3CCc4cc(O)ccc4[C@H]3CC[C@]12C (some centres undefined)
IC50 (MCF7): 3000 nM

Compound: O=c1cc(-c2ccccc2)nc2ccc(-c3ccccc3O)cn12
IC50 (Estrogen receptor [9]): 250000 nM

Compound: Cc1c(-c2ccc(O)cc2)nn(-c2ccc(O)cc2)c1-c1ccc(OCCN2CCCCC2)cc1
Ki (Estrogen receptor beta): 1800 nM

Compound: CO[C@H]1/C=C\C=C(/C)C(=O)NC2=CC(=O)C(NC/C=C/C[C@@H]3C[C@H]4[C@@H]5CCc6cc(O)ccc6[C@H]5CC[C@]4(C)[C@H]3O)=C(C[C@@H](C)C[C@H](OC)[C@H](O)[C@@H](C)/C=C(\C)[C@@H]1OC(N)=O)C2=O (stereo in doubt)
IC50 (Estrogen receptor [13]): 80 nM | IC50 [14]: 100 nM | IC50 [15]: 1500 nM
